Test: Visual evaluation of dispersibility of celecoxib powders after reconstitution in 0.01N HCl
Type: physicochemical
Method: The unprocessed celecoxib, the blended celecoxib, and the jet milled blended celecoxib were analyzed using visual inspection and by light microscopy (performed on a hemacytometer slide) following reconstitution in 0.01N HCl. FIGS. 5A, 5B, and 5C show the particles of the bulk celecoxib, the blended powder, and the jet-milled blended powder, respectively. The quality of the suspensions are described in Table 2.

Visual Evaluation of Suspension: Poor suspension containing many
Compound: Cc1ccc(-c2cc(C(F)(F)F)nn2-c2ccc(S(N)(=O)=O)cc2)cc1 [Celecoxib/no blending or jet milling, celecoxib]

From patent US20070148211A1, “PROCESSES FOR MAKING PARTICLE-BASED PHARMACEUTICAL FORMULATIONS FOR ORAL ADMINISTRATION” (Acusphere, Inc., priority 2005, published 2007)
